PubChem BioAssay (NCI)
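The compound was tested at five concentrations on cells cultured in 96-well plates, with a 48-hour exposure period. GI50: concentration for 50% inhibition of growth. At the TGI there is no net growth.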

Tests used:
Experiment in all cases: DTP human tumour cell line panel, 48 h
[1] = test system: OVCAR-4 ovarian
[2] = test system: HOP-62 NSCLC
[3] = test system: UO-31 renal
[4] = test system: SK-MEL-5 melanoma
[5] = test system: NCI-H460 lung
[6] = test system: U251 CNS
[7] = test system: OVCAR-5 ovarian
[8] = test system: NCI-H23 lung
[9] = test system: SF-539 CNS
[10] = test system: UACC-257 melanoma
[11] = test system: K-562 leukemia
[12] = test system: BT-549 breast
[13] = test system: OVCAR-3 ovarian
[14] = test system: RXF 393 renal
[15] = test system: SR leukemia
[16] = test system: UACC-62 melanoma
[17] = test system: SK-MEL-28 melanoma
[18] = test system: MCF7 breast
[19] = test system: KM12 colon
[20] = test system: CAKI-1 renal
[21] = test system: TK-10 renal
[22] = test system: OVCAR-8 ovarian
[23] = test system: HL-60(TB) leukemia
[24] = test system: A498 renal
[25] = test system: MALME-3M melanoma
[26] = test system: HS 578T breast
[27] = test system: A549 NSCLC
[28] = test system: MDA-MB-435
[29] = test system: CCRF-CEM leukemia
[30] = test system: SNB-19 CNS
[31] = test system: SF-268 CNS
[32] = test system: NCI/ADR-RES ovarian
[33] = test system: HCT-116 colon
[34] = test system: RPMI-8226 leukemia
[35] = test system: SN12C renal
[36] = test system: SNB-75 CNS
[37] = test system: SK-MEL-2 melanoma
[38] = test system: PC-3 prostate
[39] = test system: T-47D breast
[40] = test system: HCT-15 colon
[41] = test system: M14 melanoma
[42] = test system: LOX IMVI melanoma
[43] = test system: NCI-H226 lung
[44] = test system: 786-0 renal
[45] = test system: SK-OV-3 ovarian
[46] = test system: SW-620 colon
[47] = test system: SF-295 CNS
[48] = test system: IGROV1 ovarian
[49] = test system: NCI-H522 lung
[50] = test system: MDA-MB-231 breast
[51] = test system: EKVX NSCLC
[52] = test system: HT29 colon
[53] = test system: ACHN renal
[54] = test system: COLO 205 colon
[55] = test system: DU-145 prostate
[56] = test system: HOP-92 NSCLC
[57] = test system: MOLT-4 leukemia

O=[N+]([O-])c1cc([N+](=O)[O-])c(NN=C(c2ccc(O)cc2)c2ccc(O)cc2)cc1Cl
GI50 [1]: 1400 nM | TGI [1]: 2950 nM | GI50 [2]: 2440 nM | TGI [2]: 4990 nM | GI50 [3]: 1760 nM | TGI [3]: 3390 nM | GI50 [4]: 1470 nM | TGI [4]: 2910 nM | GI50 [5]: 1920 nM | TGI [5]: 4000 nM | GI50 [6]: 1870 nM | TGI [6]: 3550 nM | GI50 [7]: 2200 nM | TGI [7]: 4150 nM | GI50 [8]: 1980 nM | TGI [8]: 4450 nM | GI50 [9]: 1750 nM | TGI [9]: 3130 nM | GI50 [10]: 2170 nM | TGI [10]: 3890 nM | GI50 [11]: 4890 nM | TGI [11]: > 100000 nM | GI50 [12]: 2080 nM | TGI [12]: 4460 nM | GI50 [13]: 912 nM | TGI [13]: 2240 nM | TGI [14]: 350 nM | GI50 [15]: 1680 nM | GI50 [16]: 1760 nM | TGI [16]: 3280 nM | GI50 [17]: 685 nM | TGI [17]: 1730 nM | GI50 [18]: 1370 nM | TGI [18]: 3300 nM | GI50 [19]: 1830 nM | TGI [19]: 3730 nM | GI50 [20]: 1700 nM | TGI [20]: 3340 nM | GI50 [21]: 2260 nM | TGI [21]: 4660 nM | GI50 [22]: 1790 nM | TGI [22]: 4600 nM | GI50 [23]: 684 nM | TGI [23]: 2420 nM | GI50 [24]: 2020 nM | TGI [24]: 3640 nM | GI50 [25]: 1970 nM | TGI [25]: 3980 nM | GI50 [26]: 742 nM | TGI [26]: 2040 nM | GI50 [27]: 2840 nM | TGI [27]: 6590 nM | GI50 [28]: 1820 nM | TGI [28]: 3600 nM | GI50 [29]: 716 nM | TGI [29]: 2290 nM | GI50 [30]: 366 nM | TGI [30]: 2300 nM | GI50 [31]: 1700 nM | TGI [31]: 3290 nM | GI50 [32]: 1890 nM | TGI [32]: 3890 nM | GI50 [33]: 1230 nM | TGI [33]: 3110 nM | GI50 [34]: 1980 nM | TGI [34]: 4070 nM | GI50 [35]: 1780 nM | TGI [35]: 3360 nM | GI50 [36]: 1440 nM | TGI [36]: 3080 nM | GI50 [37]: 3060 nM | TGI [37]: 10600 nM | GI50 [38]: 813 nM | TGI [38]: 2330 nM | GI50 [39]: 572 nM | TGI [39]: 2120 nM | GI50 [40]: 407 nM | TGI [40]: 1520 nM | GI50 [41]: 1830 nM | TGI [41]: 3940 nM | GI50 [42]: 409 nM | TGI [42]: 1600 nM | GI50 [43]: 2010 nM | TGI [43]: 3840 nM | GI50 [44]: 2150 nM | TGI [44]: 4260 nM | GI50 [45]: 2040 nM | TGI [45]: 4150 nM | GI50 [46]: 348 nM | TGI [46]: 1220 nM | GI50 [47]: 1840 nM | TGI [47]: 3650 nM | GI50 [48]: 449 nM | TGI [48]: 1570 nM | GI50 [49]: 2000 nM | TGI [49]: 4220 nM | GI50 [50]: 1740 nM | TGI [50]: 3290 nM | GI50 [51]: 2330 nM | TGI [51]: 5100 nM | GI50 [52]: 1540 nM | TGI [52]: 4070 nM | GI50 [53]: 1880 nM | TGI [53]: 3450 nM | GI50 [54]: 2400 nM | TGI [54]: 5310 nM | GI50 [55]: 1140 nM | TGI [55]: 2640 nM | GI50 [56]: 463 nM | TGI [56]: 2480 nM | GI50 [57]: 832 nM | TGI [57]: 3110 nM
